Experimental data taken from publication PMC11565046, “Rational design of 2H-chromene-based antiphytovirals that inhibit virion assembly by outcompeting virus capsid-RNA interactions” (iScience, 2024).
Like-named read-outs stand apart in the source and are kept apart here.

Tests used:
PVY CP^wt = PVY CP^wt (Potato virus Y, UniProt A0A650FPI8); experiment: MST assay for affinity with PVY CP^wt; type: binding
Excerpt: Microscale thermophoresis (MST) serves as a potent technique for quantifying the strength of interactions occurring between small molecules and their respective ligands.[19]^,[20] The binding strength between specific target drugs and PVY CP^wt was investigated in vitro using MST, as depicted in Figures 5G and S3. This experimental approach aimed to acquire insights into how target compounds exert their influences against PVY. […] Similarly, the affinity of target compounds for interacting with PVY CP^S125A was tested.
The PVY CP^wt gene, the wild-type variant of the Potato Virus Y coat protein, was cloned into the pET-32a (+) prokaryotic expression vector. This recombinant vector was then thermally transformed into BL21 (DE3) bacterial host cells for subsequent protein expression. The strains above were cultivated on a liquid Luria-Bertani medium (180 rpm, 37°C). To initiate the expression of PVY CP, isopropyl β-D-1-thiogalactopyranoside (IPTG) was added to the culture medium at a concentration of […] when the optical density at 600 nm (OD600) reached a range between 0.6 and 0.8. This step triggered the production of the PVY CP protein. The induction process was maintained for 10 h (180 rpm, 16°C). The 6 × -His-S-tagged PVY CP^wt were purified using nickel-nitriloacetic acid by high-performance column affinity chromatography. Subsequently, enterokinase was employed to digest the proteins, and the desired target proteins were isolated using His-tag purification resin. Ultimately, the proteins were identified through the employment of a 12% sodium dodecyl sulfate-polyacrylamide gel electrophoresis method. The pET-32a (+) plasmid containing the PVY CP^wt gene was used as a template. […] The mutant protein was purified using the method for the purification of PVY CP^wt, which was PVY CP^S125A.
The proteins' binding affinity with target chemicals was evaluated using a Monolith NT.115 instrument (Nano Temper, Munich, Germany), utilizing established methods described in literature.[35]^,[48] A concentration of 2.0 mM was selected for the chemicals, and the proteins were tagged with the Monolith TM RED-NHS second-generation labeling kit. The MST assay analyzed the fluorescence intensity of the labeled proteins, focusing on a range from 400 to 1200 to investigate their interactions. The scanning method was conducted using an “LED power” setting of 40% and a temperature that was maintained at 25.0°C.

PVY [1] = experiment: Inactivating activity against PVY, half-leaf method on Chenopodium amaranticolor; type: in vivo, potato virus Y; details: for EC50: Potato virus Y, in Chenopodium amaranticolor
Method: (§1) According to previous reports,[46] PVY was infested in Nicotiana tabacum K326, and PVY was harvested and purified after showing severe infection symptoms on the leaves. The literature-guided protocol was followed to assess the curative, prophylactic, and […] potential of the target compounds under investigation.[15]
Target compound solution (1,000 μg/mL) and 2 × virus solution were combined in equal quantities and incubated for 30 min. Evenly distribute emery onto the leaf blades, and apply the mixture of virus and compound solution onto the right side of C. amaranticolor leaf blades. Following this, an identical quantity of a 1× virus solution was applied to the untreated side of the leaf. Following a duration of 1.5 h, the emery residue present on the leaf surface was removed using a rinsing process utilizing water. The plants were incubated within a controlled greenhouse environment, maintaining a consistent temperature of 25°C. After 5−7 days, they proceeded to statistics the number of necrotic spots on the leaves. For each chemical, triplicate experiments were undertaken, and the average percentage of inhibition was subsequently determined.

PVY CP^S125A = target: T1, PVY CP^S125A (Potato virus Y, UniProt Q02963, S2919A); experiment: MST assay for affinity with mutant PVY CP^S125A; details: 25.0°C, read-out: Kd for binding to PVY CP^S125A
T1 construct: 6xHis (N, cleaved yes); S-tag (N, cleaved yes); thioredoxin (Trx, from pET-32a); made in house; host or cells: E. coli BL21 (DE3)
T1 sequence (Q02963 2795-3061 S2919A): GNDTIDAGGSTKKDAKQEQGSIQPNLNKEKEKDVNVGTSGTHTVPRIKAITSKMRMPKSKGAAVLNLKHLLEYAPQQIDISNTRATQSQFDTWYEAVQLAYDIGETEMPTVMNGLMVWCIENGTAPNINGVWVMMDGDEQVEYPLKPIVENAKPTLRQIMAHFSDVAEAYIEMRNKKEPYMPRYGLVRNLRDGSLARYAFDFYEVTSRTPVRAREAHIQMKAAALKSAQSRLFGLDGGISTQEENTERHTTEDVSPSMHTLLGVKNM

PVY [2] = experiment: Protective activity against PVY, half-leaf method on Chenopodium amaranticolor; type: in vivo; details: Potato virus Y, in Chenopodium amaranticolor; 500 μg/mL; Chenopodium amaranticolor leaves; average of three replicates
Method: as §1
A 500 μg/mL solution of the targeted compound was delicately applied to one side of C. amaranticolor leaves, while the other side was treated with a 1% Tween 80 aqueous solution. The plants were positioned in a greenhouse set at 25°C. Following a 24 h period, the entire leaf surface was inoculated with PVY by uniformly distributing 200–300 mesh emery. After 1.5 h, the emery was washed off with water, and the plants were returned to the greenhouse. After 5–7 days, the number of necrotic spots was tallied, with the assessment based on the greenhouse population. Each compound was tested in triplicate, and the average inhibition rate was subsequently calculated.

PVY [3] = experiment: Curative activity against PVY, half-leaf method on Chenopodium amaranticolor; type: in vivo; details: Potato virus Y, in Chenopodium amaranticolor; 500 μg/mL; Chenopodium amaranticolor leaves; average of three replicates
Excerpt: as §1
To assess the curative effectiveness against PVY, a uniform layer of 200–300 mesh emery was applied to the leaves of C. amaranticolor, followed by rubbing with a virus solution. For 1.5 h, then the emery was washed off with water. After the leaves naturally dried, a 500 μg/mL solution of the test compound was carefully applied to one side of the leaf, while the opposite side received a 1% Tween 80 solution as a control. The plants were subsequently incubated in a greenhouse maintained at 25°C. After 5−7 days, the presence of necrotic spots on the leaves was recorded, with each compound tested on three replicate plants. The average inhibition rate was determined by analyzing the data from these replications.

PVY-GFP = experiment: Systemic infection of PVY-GFP in Nicotiana benthamiana (UV fluorescence, RT-qPCR); type: in vivo, potato virus Y; details: 500 μg/mL spray, 7 dpai; for Green fluorescence under UV light: N. benthamiana, versus DMSO control; for PVY RNA accumulation level (control normalized as 100%): systemic leaves of N. benthamiana, RT-qPCR
Excerpt: To evaluate the effect of C50 on PVY infection, we infiltrated the Nicotiana benthamiana plants with Agrobacterium carrying the PVY infectious clone pCamPVY-GFP. […] The RT-qPCR results for GFP were consistent with that of PVY RNA (Figure 3D).
The Nicotiana benthamiana plants were subjected to infestation by Agrobacterium tumefaciens, which carried either pCamPVY-GFP or an empty vector (mock). […] At 7 dpai, the leaves of N. benthamiana were looked at for the GFP using a LUYOR UV light (Shanghai, China), and captured in photographs. The foliage was gathered, rapidly frozen with liquid nitrogen, and subsequently preserved in a refrigerator set at a temperature of −80°C.
Leaf blades of Nicotiana benthamiana were pulverized into fine powder with the aid of liquid nitrogen, followed by the extraction of total RNA from the leaf tissue utilizing Trizol reagent (Invitrogen, California, USA). Subsequently, cDNA synthesis was conducted through reverse transcription with primers and a reverse transcription kit (Vazyme, Nanjing, China). Any potential DNA contamination was effectively removed using a gDNA wipe enzyme (Vazyme, Nanjing, China) as per the manufacturer’s guidelines. RT-qPCR analysis was carried out employing TB Green (TaKaRa, Beijing, China). Detailed information regarding the primers utilized in this investigation can be found in Table S2.

[4] = Chenopodium amaranticolor leaves, read-out: EC50 for inactivating activity
[5] = inactivating activity, Table S1, read-out: Experimental pEC50 (converted)

CC1(C)C=Cc2c(ccc(/C=N/c3ccc(NS(=O)(=O)c4ccc(Cl)cc4)cc3)c2O)O1 [Compound C6, (E)-4-chloro-N-(4-(((5-hydroxy-2,2-dimethyl-2H-chromen-6-yl)methylene)amino)phenyl) benzenesulfonamide]
melting point: 139 to 141 °C
Kd (PVY CP^wt): 4.4 µM
EC50 (PVY [1]; [4]): 56.7 ± 4.2 µg/mL
EC50 (PVY [1]; [5]): 121 µM
Kd (PVY CP^S125A): 312 ± 40.3 µM

Cc1cccc(S(=O)(=O)Nc2ccc(/N=C/c3ccc4c(c3O)C=CC(C)(C)O4)cc2)c1 [Compound C27]
inhibition at 500 µg/mL (PVY [2]): 60 to 70%
melting point: 152 to 154 °C
inhibition at 500 µg/mL (PVY [3]): 60 to 70%
EC50 (PVY [1]; [4]): 90.3 ± 7.1 µg/mL
EC50 (PVY [1]; [5]): 202 µM

CC1(C)C=Cc2c(ccc(/C=N/c3ccc(NS(=O)(=O)Cc4ccccc4)cc3)c2O)O1 [Compound C28]
inhibition at 500 µg/mL (PVY [2]): 60 to 70%
melting point: 143 to 145 °C
inhibition at 500 µg/mL (PVY [3]): 60 to 70%
EC50 (PVY [1]; [4]): 503 ± 12.8 µg/mL
EC50 (PVY [1]; [5]): 1120 µM

CCCCS(=O)(=O)Nc1ccc(/N=C/c2ccc3c(c2O)C=CC(C)(C)O3)cc1 [Compound C29]
inhibition at 500 µg/mL (PVY [2]): 60 to 70%
melting point: 132 to 134 °C
inhibition at 500 µg/mL (PVY [3]): 60 to 70%
EC50 (PVY [1]; [4]): 682 ± 10 µg/mL
EC50 (PVY [1]; [5]): 1650 µM

CC1(C)C=Cc2c(ccc(/C=N/c3ccc(NS(=O)(=O)c4c(F)cccc4F)cc3)c2O)O1 [Compound C32]
inhibition at 500 µg/mL (PVY [2]): 60 to 70%
melting point: 191 to 193 °C
inhibition at 500 µg/mL (PVY [3]): 60 to 70%
EC50 (PVY [1]; [4]): 88.3 ± 4 µg/mL
EC50 (PVY [1]; [5]): 188 µM

CC1(C)C=Cc2c(ccc(/C=N/c3ccc(NS(=O)(=O)c4ccc(Br)cc4)cc3)c2O)O1 [Compound C34]
inhibition at 500 µg/mL (PVY [2]): 60 to 70%
melting point: 158 to 160 °C
inhibition at 500 µg/mL (PVY [3]): 60 to 70%
EC50 (PVY [1]; [4]): 147 ± 8.3 µg/mL
EC50 (PVY [1]; [5]): 288 µM

CC1(C)C=Cc2c(ccc(/C=N/c3ccc(NS(=O)(=O)c4cccc(Cl)c4)cc3)c2O)O1 [Compound C36]
inhibition at 500 µg/mL (PVY [2]): 60 to 70%
melting point: 189 to 191 °C
inhibition at 500 µg/mL (PVY [3]): 60 to 70%
EC50 (PVY [1]; [4]): 557 ± 14.3 µg/mL
EC50 (PVY [1]; [5]): 1190 µM

CC1(C)C=Cc2c(ccc(/C=N/c3ccc(NS(=O)(=O)c4cccc(Cl)c4F)cc3)c2O)O1 [Compound C37]
inhibition at 500 µg/mL (PVY [2]): 60 to 70%
melting point: 193 to 195 °C
inhibition at 500 µg/mL (PVY [3]): 60 to 70%
EC50 (PVY [1]; [4]): 306 ± 11 µg/mL
EC50 (PVY [1]; [5]): 631 µM

Cc1c(Cl)cccc1S(=O)(=O)Nc1ccc(/N=C/c2ccc3c(c2O)C=CC(C)(C)O3)cc1 [Compound C38]
inhibition at 500 µg/mL (PVY [2]): 60 to 70%
melting point: 193 to 195 °C
inhibition at 500 µg/mL (PVY [3]): 60 to 70%
EC50 (PVY [1]; [4]): 410 ± 9.7 µg/mL
EC50 (PVY [1]; [5]): 851 µM

CC(C)=CCCC1(C)C=Cc2c(ccc(/C=N/c3ccc(NS(=O)(=O)c4ccc(C)cc4)cc3)c2O)O1 (stereo not drawn) [Compound C42]
melting point: 95 to 97 °C
Kd (PVY CP^wt): 497 µM
EC50 (PVY [1]; [4]): 503 ± 17 µg/mL
EC50 (PVY [1]; [5]): 975 µM

Cc1ccc(S(=O)(=O)Nc2ccc(/N=C/c3ccc4c(c3O)C=CC(C)(C)O4)cc2)cc1 [Compound C50]
inhibition at 500 µg/mL (PVY [2]): 60 to 70%
melting point: 127 to 129 °C
Kd (PVY CP^wt): 1.6 µM
inhibition at 500 µg/mL (PVY [3]): 60 to 70%
EC50 (PVY [1]; [4]): 53.3 ± 4.3 µg/mL
EC50 (PVY [1]; [5]): 119 µM
Kd (PVY CP^S125A): 125 µM
Green fluorescence under UV light (PVY-GFP): noteworthy decrease in green fluorescence
PVY RNA accumulation level (control normalized as 100%) (PVY-GFP): 18.9%

CNCC(=O)N[C@@H](CO)C(=O)N[C@H]1[C@H](O)[C@@H](O)[C@H](n2ccc(N)nc2=O)O[C@@H]1C(N)=O [NNM, Ningnanmycin, reference compound]
Kd (PVY CP^wt): 8.6 µM
EC50 for inactivating activity (PVY [1]; Chenopodium amaranticolor leaves): 75.7 ± 4.0 µg/mL
EC50 (PVY [1]; read-out: EC50 for inactivating activity, Chenopodium amaranticolor leaves): 73.7 µg/mL
Green fluorescence under UV light (PVY-GFP): noteworthy decrease in green fluorescence
PVY RNA accumulation level (control normalized as 100%) (PVY-GFP): 51.8%
